Experimental data published in ChEMBL document CHEMBL1201862, “PubChem BioAssay data set” (2004).
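48-hour exposure; five concentrations; linearly interpolated endpoints. GI50 is the concentration that inhibits growth by half.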 Calls of active or inactive are those of the source. Cut-off read from the data, not from the text of the source: active = GI50 up to about 1.1 µM and inactive = higher.

Tests used:
Assay in all cases: growth of human tumour cells (NCI), 48 h
COLO 205 = tested on: COLO 205
DU-145 = tested on: DU-145
HCC 2998 = tested on: HCC 2998
HL-60 = tested on: HL-60
HOP-62 = tested on: HOP-62
HOP-92 = tested on: HOP-92
IGROV-1 = tested on: IGROV-1
K562 = tested on: K562
MCF7 = tested on: MCF7
MDA-MB-435 = tested on: MDA-MB-435
NCI/ADR-RES = tested on: NCI/ADR-RES
OVCAR-4 = tested on: OVCAR-4
RPMI-8226 = tested on: RPMI-8226
SK-MEL-2 = tested on: SK-MEL-2
SK-OV-3 = tested on: SK-OV-3
TK-10 = tested on: TK-10
UO-31 = tested on: UO-31
NCI-H522 = tested on: NCI-H522
RXF 393 = tested on: RXF 393
UACC-257 = tested on: UACC-257

Measured: GI50

Cc1ccc(C2(O)CS/C(=N\C34CC5CC(CC(C5)C3)C4)N2C(P(=O)(O)O)P(=O)(O)O)cc1 (configuration not stated)
inactive: COLO 205 > 100 µM | DU-145 > 100 µM | HCC 2998 68.1 µM | HL-60 37.7 µM | HOP-62 49.1 µM | HOP-92 > 100 µM | IGROV-1 > 100 µM | K562 42.7 µM | MCF7 65.2 µM | MDA-MB-435 > 100 µM | NCI/ADR-RES 24.2 µM | OVCAR-4 > 100 µM | RPMI-8226 > 100 µM | SK-MEL-2 27.5 µM | SK-OV-3 72.8 µM | TK-10 > 100 µM | UO-31 > 100 µM

O=C1CCN(CCC(F)(F)C(F)(F)C(F)(F)C(F)(F)C(F)(F)C(F)(F)F)C(=S)N1CCC(F)(F)C(F)(F)C(F)(F)C(F)(F)C(F)(F)C(F)(F)F
inactive: COLO 205 > 100 µM | DU-145 > 100 µM | HCC 2998 > 100 µM | HL-60 > 100 µM | HOP-62 > 100 µM | HOP-92 > 100 µM | IGROV-1 > 100 µM | K562 > 100 µM | MCF7 > 100 µM | MDA-MB-435 > 100 µM | NCI-H522 > 100 µM | OVCAR-4 > 100 µM | RXF 393 > 100 µM | SK-OV-3 > 100 µM | TK-10 > 100 µM | UACC-257 > 100 µM | UO-31 > 100 µM

CC1(C)OCC(C(O)C2OC(C)(C)OC2C=O)O1 (configuration not stated)
inactive: COLO 205 > 100 µM | DU-145 > 100 µM | HOP-62 > 100 µM | IGROV-1 > 100 µM | K562 > 100 µM | MCF7 > 100 µM | MDA-MB-435 > 100 µM | NCI/ADR-RES > 100 µM | OVCAR-4 > 100 µM | RPMI-8226 > 100 µM | SK-MEL-2 > 100 µM | SK-OV-3 > 100 µM | TK-10 > 100 µM | UACC-257 > 100 µM | UO-31 > 100 µM

COc1cc2c(c(OC)c1OC)C(=O)CC2N (configuration not stated)
inactive: COLO 205 > 100 µM | HCC 2998 > 100 µM | HL-60 > 100 µM | HOP-92 > 100 µM | IGROV-1 > 100 µM | K562 > 100 µM | MCF7 > 100 µM | MDA-MB-435 > 100 µM | NCI-H522 > 100 µM | NCI/ADR-RES > 100 µM | OVCAR-4 > 100 µM | RPMI-8226 > 100 µM | SK-MEL-2 > 100 µM | SK-OV-3 > 100 µM | TK-10 > 100 µM | UACC-257 > 100 µM | UO-31 > 100 µM

CCN(CC)S(=O)(=O)c1ccc2[nH]c(NC(=O)OC)nc2c1
inactive: COLO 205 96.8 µM | DU-145 > 100 µM | HCC 2998 7 µM | HL-60 12.9 µM | HOP-62 40.3 µM | HOP-92 30.1 µM | IGROV-1 32.4 µM | K562 32.1 µM | MDA-MB-435 15.3 µM | NCI-H522 > 100 µM | NCI/ADR-RES > 100 µM | OVCAR-4 35.6 µM | RPMI-8226 14 µM | RXF 393 81.3 µM | SK-MEL-2 > 100 µM | SK-OV-3 > 100 µM | TK-10 6.47 µM | UACC-257 8.02 µM | UO-31 46.3 µM

Cc1ccc2ccccc2c1NC1=NCCO1
inactive: COLO 205 > 100 µM | DU-145 > 100 µM | HCC 2998 82.8 µM | HL-60 58.5 µM | HOP-62 > 100 µM | HOP-92 11.8 µM | IGROV-1 > 100 µM | K562 56.9 µM | MCF7 82 µM | MDA-MB-435 > 100 µM | NCI/ADR-RES > 100 µM | OVCAR-4 94.6 µM | RPMI-8226 36.2 µM | RXF 393 > 100 µM | SK-OV-3 > 100 µM | TK-10 > 100 µM | UACC-257 57.3 µM | UO-31 27.7 µM

Fc1ccc2c3c([nH]c2c1)CCN(Cc1ccccc1)C3
inactive: COLO 205 20.5 µM | DU-145 22.3 µM | HCC 2998 13.2 µM | HL-60 17.3 µM | HOP-62 15 µM | HOP-92 5.33 µM | IGROV-1 20.7 µM | K562 18.1 µM | MCF7 16.7 µM | MDA-MB-435 17.5 µM | NCI/ADR-RES 28.1 µM | OVCAR-4 24.6 µM | RPMI-8226 27.7 µM | RXF 393 16 µM | SK-OV-3 19.2 µM | TK-10 > 10 µM | UACC-257 15.3 µM | UO-31 12.2 µM

COC(=O)C(CC12CC3CC(CC(C3)C1)C2)NC(=O)C(N)CC(=O)O (configuration not stated)
inactive: COLO 205 > 100 µM | DU-145 > 100 µM | HCC 2998 > 100 µM | HOP-62 > 100 µM | HOP-92 > 100 µM | IGROV-1 > 100 µM | K562 > 100 µM | MDA-MB-435 > 100 µM | NCI-H522 > 100 µM | NCI/ADR-RES > 100 µM | OVCAR-4 > 100 µM | RPMI-8226 > 100 µM | RXF 393 > 100 µM | SK-MEL-2 > 100 µM | SK-OV-3 > 100 µM | TK-10 > 100 µM | UACC-257 > 100 µM | UO-31 > 100 µM

Cc1ccc(O)c(/N=N\c2c(O)cc(S(=O)(=O)O)c3ccccc23)c1
inactive: COLO 205 67.6 µM | HCC 2998 > 100 µM | HL-60 16.4 µM | HOP-62 57.4 µM | HOP-92 > 100 µM | IGROV-1 40.3 µM | K562 32.2 µM | MCF7 41.1 µM | MDA-MB-435 56.9 µM | NCI/ADR-RES 24.3 µM | OVCAR-4 66.1 µM | RPMI-8226 37.9 µM | RXF 393 > 100 µM | SK-MEL-2 29.7 µM | SK-OV-3 51.4 µM | TK-10 > 100 µM | UACC-257 94.6 µM | UO-31 17.3 µM

CC(C(=O)O)C1Nc2ccccc2NC1=O (configuration not stated)
inactive: COLO 205 > 100 µM | DU-145 > 100 µM | HCC 2998 > 100 µM | HL-60 23.3 µM | HOP-92 > 100 µM | IGROV-1 > 100 µM | K562 > 100 µM | MCF7 > 100 µM | MDA-MB-435 > 100 µM | NCI/ADR-RES > 100 µM | OVCAR-4 > 100 µM | RPMI-8226 37.4 µM | RXF 393 > 100 µM | SK-MEL-2 > 100 µM | SK-OV-3 > 100 µM | TK-10 > 100 µM | UACC-257 > 100 µM | UO-31 > 100 µM

O=C(Nc1ccc(Cl)cc1)c1cc(S(=O)(=O)Nc2n[nH]c(=O)n2-c2ccccc2)c(S)cc1Cl
inactive: COLO 205 > 100 µM | DU-145 > 100 µM | HCC 2998 > 100 µM | HL-60 > 100 µM | HOP-62 > 100 µM | HOP-92 > 100 µM | IGROV-1 > 100 µM | MCF7 > 100 µM | MDA-MB-435 > 100 µM | NCI/ADR-RES > 100 µM | OVCAR-4 > 100 µM | RPMI-8226 > 100 µM | RXF 393 > 100 µM | SK-MEL-2 > 100 µM | SK-OV-3 > 100 µM | UACC-257 > 100 µM | UO-31 > 100 µM
